Results as given in patent US20250213550A1, “COMPOUNDS AND METHODS FOR TREATING INFLAMMATORY BOWEL DISEASE” (Gilead Sciences, Inc., priority 2023, published 2025).
Where two headings read alike, the source gives them in different places.

Assay: Phase 1 single- and multiple-ascending dose study: plasma PK of Compound A after oral Compound 1
Format: in vivo, human
Conditions: for Ctau / AUCtau/D / Cmax/D / AUC: Day 10, mean; for AUCtau/D / Cmax/D: dose-normalized; for half-life / AUC / Tmax: human, plasma
Protocol: A 2-part, single- and multiple-ascending dose sponsor-unblinded Phase 1 study was conducted for Cohorts 1-9 to evaluate the safety, tolerability, PK, and PD of Compound 1 in healthy participants. Up to 72 participants ages 18 to 55 years (inclusive) and having body mass index (BMI) of ≥19.0 and ≤30.0 kg/m^2 were enrolled. For Cohort 9, participants were homozygous for the UGT1A1*28 allele (UGT1A1 *28/*28: TA7/TA7).
Part A proceeded in 4 staggered, dose-escalation cohorts. Within each of Cohorts 1-4, 8 unique participants were randomized 3:1 to receive blinded Compound 1 (N=6) or placebo-to-match (PTM) (N=2). The dose of Compound 1 for all adaptive cohorts (Cohorts 2, 3, and 4) was determined based on cumulative safety and available PK data through a minimum of Day 3 from previous cohorts, not exceeding the specified upper dose limit (Table 2). Dosing in Part A was completed prior to proceeding with Part B.
Part B proceeded in up to 5 staggered, dose-escalation cohorts. Within each of Cohorts 5-9, 8 unique participants were randomized 3:1 to receive blinded Compound 1 (N=6) or PTM (N=2). Start of multiple dosing within Adaptive Cohort 5 was determined by review of the cumulative safety and PK data through at least Day 3 of the final cohort in Part A. Initiation of subsequent multiple-dose cohorts at a higher dose (Cohorts 6, 7, 8, and 9) was determined based on cumulative safety through at least Day 10 from all participants enrolled in the previous multiple-dose cohort (Table 3).
For Cohorts 1-4, plasma PK sampling occurred relative to the dose of Compound 1 at the following time points: • Day 1: 0 (pre-dose, ≤5 min prior to dosing), 0.25, 0.5, 1, 1.5, 2, 3, 4, 6, 8, 12, 18, 24, 36, 48, 72, 96, and 120 hours post-dose A single plasma PK sample was collected at early termination (ET), if applicable.
For Cohorts 5-9, plasma PK sampling occurred relative to the dose of Compound 1 at the following time points: • Day 1 (Cohorts 8 and 9): pre-dose (≤5 min before dose), 0.5, 1, 2, 3, 4, 6, 8, 12, 13, 14, 15, 16, 18, and 20 hours post-dose (relative to AM dose) • Day 10 (Cohorts 5-9): pre-dose (≤5 min before dose), 0.25, 0.5, 1, 1.5, 2, 3, 4, 6, 8, 12, 18, 24, 36, 48, 72, 96, and 120 hours post-dose • A pre-dose sample was collected on Days 2, 4, 7, and 8. A single plasma PK sample was collected at early termination (ET), if applicable.
Concentrations of Compound 1, and its respective metabolites Compound A and Compound B in plasma PK samples were determined by validated high-performance liquid chromatography-tandem mass spectrometry (LC-MS/MS) bioanalytical methods.
Pharmacokinetic parameters for Compound 1 and its metabolites were determined from the plasma concentration-time profiles for all evaluable participants.
Compound 1 was administered under fasting conditions following an overnight fast (no food or drinks except water) for at least 10 hours; food could be consumed 4 hours after administration of Compound 1.

[1] = Cohort 5, 75 mg Cpd 1 QD fasted
[2] = Cohort 6, 300 mg Cpd 1 QD fasted
[3] = Cohort 7, 900 mg Cpd 1 QD fasted

Ctau [1]: 0.273 µg/mL
Ctau [2]: 1.07 µg/mL
Ctau [3]: 2.33 µg/mL
time to steady-state exposures (Compound 1 once-daily dosing): ≤ 7 days
AUCtau/D [1]: 0.141 µg·h/mL
Cmax/D [1]: 13.1 ng/mL
AUCtau/D [2]: 0.125 µg·h/mL
Cmax/D [2]: 10.6 ng/mL
AUCtau/D [3]: 0.0691 µg·h/mL
Cmax/D [3]: 5.5 ng/mL
half-life (oral, 75 mg, Cohort 5, 75 mg Cpd 1 QD fasted, Day 10, median, read-out: t1/2 (converted)): 21.8 h
half-life (oral, 300 mg, Cohort 6, 300 mg Cpd 1 QD fasted, Day 10, median, read-out: t1/2 (converted)): 19 h
half-life (oral, 900 mg, Cohort 7, 900 mg Cpd 1 QD fasted, Day 10, median, read-out: t1/2 (converted)): 28.5 h
half-life (oral, across Compound 1 dose levels, single or multiple doses, read-out: median t1/2): 20 to 30 h
AUC (oral, Cohort 5, 75 mg Cpd 1 QD fasted): 10500 ng·h/mL
Tmax (oral, Cohort 5, 75 mg Cpd 1 QD fasted, Day 10, median, read-out: Tmax): 3 h
AUC (oral, Cohort 6, 300 mg Cpd 1 QD fasted): 37400 ng·h/mL
Tmax (oral, Cohort 6, 300 mg Cpd 1 QD fasted, Day 10, median, read-out: Tmax): 4 h
AUC (oral, Cohort 7, 900 mg Cpd 1 QD fasted): 62200 ng·h/mL
Tmax (oral, Cohort 7, 900 mg Cpd 1 QD fasted, Day 10, median, read-out: Tmax): 3.01 h
Tmax (oral, multiple doses of Compound 1 (75 to 900 mg QD, 600 mg BID), fasted, range across cohorts, read-out: median Tmax): 2 to 4 h
half-life (oral, multiple doses of Compound 1 (75 to 900 mg QD, 600 mg BID), fasted, range across cohorts, read-out: median t1/2): 19 to 28 h
half-life (po, single oral doses of Compound 1 (300 to 1500 mg), fasted, range across doses, read-out: median terminal elimination t1/2): 22 to 29 h
Tmax (single oral doses of Compound 1 (300 to 1500 mg), fasted, range across doses, read-out: median Tmax): 3 to 4 h
exposure (AUC) accumulation (multiple dosing of 600 mg Compound 1 once daily): approximately 2 fold
steady-state plasma exposure (Cmax and AUC) (multiple once-daily doses of Compound 1, 75 to 900 mg, fasted): increased in a dose-dependent manner
plasma exposure (Cmax, AUCinf, and AUClast) (single oral doses of Compound 1, 300 to 900 mg dose range, fasted): increased in a dose-dependent manner
Compound: Cn1ccc2c([C@H](Nc3cc(Cl)c4ncc(C#N)c(NCC(C)(C)C)c4c3)c3cn(C45CC(C4)C5)nn3)cccc2c1=O [Compound A]
